Assay results published in patent US20240132513A1, “BENZAZEPINE DERIVATIVES, COMPOSITIONS, AND METHODS FOR TREATING COGNITIVE IMPAIRMENT” (AGENEBIO, INC., priority 2022, published 2024).

What follows are compounds tested against α5β3γ2 GABAA R (Homo sapiens, UniProt P18507+P31644) (assay: Binding activity on GABAA R: inhibition of [3H]Ro15-1788 binding, α5 containing receptor). Conditions: not given.
Description: Tissue culture and Membrane Preparation: The binding was performed on Ltk cells stably expressing GABAA R: […], α2β3γ2, α3β3γ2 and α5β3γ2 (provided by Merck Co., NJ, USA). Cells were seeded in 100 mm culture plates in DMEM/F12 medium containing 10% serum and antibiotics in 5% CO2 and allowed to grow for 1-2 days. GABAAR expression was then induced by dexamethasone as follows: 0.5 μM for 1 day for α5 containing and 2 μM for 3 days for α1, α2 and α3 containing GABAARs. After induction, cells were collected by scraping into Dulbecco's Phosphate buffered saline (DPBS, pH 7.4, Invitrogen, Carlsbad, CA, USA) and centrifuged at 150×g for 10 min. The pellet was washed twice by re-suspension and centrifugation. The cell pellets from at least 5 different preps were combined, suspended in the binding assay buffer (50 mM KH2PO4; 1 mM EDTA; 0.2 M KCl, pH 7.4) and membranes prepared by sonication (3-5 times, 30 sec) using Branson Sonifier 150 (G. Heinmann, Germany). Protein content was determined using BCA assay (Bio-Rad Labs, Reinach, Switzerland) with Bovine Serum Albumin (Sigma Aldrich, St. Louis, MO, USA) as the standard. Aliquots were prepared and stored at −20° C. for further use in binding assays.
Ligand Binding: Saturation binding curves were obtained by incubating membranes with increasing concentrations (0.01-8 nM) of [^3H]Rol5-1788 (Flumazepil, 75-85 Ci/mmol, PerkinElmer, MA, USA), with nonspecific binding measured in the presence of 10 μM diazepam.
All binding assays were performed for 1 h at 4° C. in assay buffer. The total assay volume was 0.5 ml containing 0.2 mg/ml protein for α5 and 0.4 mg/ml for α1, α2, and α3 containing GABAAR membranes. Incubations were terminated by filtration through GF/B filters using a 24-Cell Harvestor (Brandel, Gaithersburg, MD, USA) followed by 3 washes with ice-cold assay buffer. Filters were transferred to scintillation vials, 5 ml scintillation liquid added, vortex-mixed and kept in dark. Next day, radioactivity was obtained using a scintillation counter (Beckman Coulter, Brea, CA, USA). All assays were performed in triplicate.
Data Analyses: Saturation and inhibition curves were obtained using GraphPad Prism software (GraphPad Software, Inc., CA, USA).

Sequence of α5β3γ2 GABAA R (P31644 32-462): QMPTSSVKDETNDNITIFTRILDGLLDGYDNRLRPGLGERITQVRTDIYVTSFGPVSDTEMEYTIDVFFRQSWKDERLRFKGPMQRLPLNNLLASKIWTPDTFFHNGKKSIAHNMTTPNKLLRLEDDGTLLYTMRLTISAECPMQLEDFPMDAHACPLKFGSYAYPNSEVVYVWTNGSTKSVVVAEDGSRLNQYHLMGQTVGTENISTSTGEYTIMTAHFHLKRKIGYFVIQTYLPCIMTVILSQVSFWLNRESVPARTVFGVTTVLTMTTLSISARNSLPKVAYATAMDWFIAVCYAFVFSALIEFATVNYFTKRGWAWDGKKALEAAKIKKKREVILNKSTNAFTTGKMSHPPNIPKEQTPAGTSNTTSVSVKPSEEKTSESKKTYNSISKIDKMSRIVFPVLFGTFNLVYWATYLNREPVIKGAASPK
Sequence of α5β3γ2 GABAA R (P28472 26-473 partner): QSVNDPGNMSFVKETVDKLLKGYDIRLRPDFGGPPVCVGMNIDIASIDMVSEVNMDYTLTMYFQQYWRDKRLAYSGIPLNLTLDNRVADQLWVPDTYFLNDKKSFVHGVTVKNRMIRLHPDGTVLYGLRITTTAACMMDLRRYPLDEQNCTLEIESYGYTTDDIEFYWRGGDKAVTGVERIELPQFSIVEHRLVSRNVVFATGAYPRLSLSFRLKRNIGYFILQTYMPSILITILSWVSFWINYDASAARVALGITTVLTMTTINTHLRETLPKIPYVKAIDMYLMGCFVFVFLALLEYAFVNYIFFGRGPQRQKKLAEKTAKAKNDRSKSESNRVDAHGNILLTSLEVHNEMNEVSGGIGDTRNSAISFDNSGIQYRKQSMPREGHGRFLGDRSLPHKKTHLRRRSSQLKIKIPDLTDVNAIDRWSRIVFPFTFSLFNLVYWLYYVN
Sequence of α5β3γ2 GABAA R (P18507 40-475): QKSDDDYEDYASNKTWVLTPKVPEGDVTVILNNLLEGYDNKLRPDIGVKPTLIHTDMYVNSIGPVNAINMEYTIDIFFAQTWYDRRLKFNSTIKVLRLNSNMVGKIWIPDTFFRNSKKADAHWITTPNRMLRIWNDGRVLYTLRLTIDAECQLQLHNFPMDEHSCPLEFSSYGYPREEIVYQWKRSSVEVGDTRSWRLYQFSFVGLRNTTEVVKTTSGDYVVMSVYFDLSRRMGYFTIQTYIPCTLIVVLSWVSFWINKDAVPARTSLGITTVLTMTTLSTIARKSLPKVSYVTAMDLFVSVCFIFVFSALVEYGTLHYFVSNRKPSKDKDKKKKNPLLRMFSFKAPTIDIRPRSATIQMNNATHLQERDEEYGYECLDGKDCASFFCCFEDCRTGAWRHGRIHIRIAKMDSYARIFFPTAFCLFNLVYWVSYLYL

SMILES	Ki [nM]
COc1ccc2c(c1)-c1nn(C)cc1Cc1c(-c3noc(C4(OC)CCCC4)n3)ncn1-2 [Compound 355]	< 100
Cc1noc(-c2ncn3c2Cc2cnn(Cc4ccccc4)c2-c2cc(Cl)ccc2-3)n1 [Compound 1]	< 100
Cn1cc2c(n1)-c1cc(Cl)ccc1-n1cnc(-c3cnn(C4CCCO4)c3)c1C2 (stereo not shown) [Compound 221]	100 to 1000
COCC(COC)OCc1coc(-c2ncn3c2Cc2cn(C)nc2-c2cc(Cl)ccc2-3)n1 [Compound 332]	< 100
CC(C)c1noc(-c2ncn3c2Cc2cnn(C)c2-c2cc(Cl)ccc2-3)n1 [Compound 4]	100 to 1000
COc1ccc2c(c1)-c1nn(CC3COC3)cc1Cc1c(-c3noc(C4(OC)CC4)n3)ncn1-2 [Compound 331]	< 100
COc1ccc2c(c1)-c1nn(C)cc1Cc1c(-c3nc(CN4CCCC4=O)co3)ncn1-2 [Compound 379]	< 100
Cn1cc2c(n1)-c1cc(Cl)ccc1-n1cnc(-c3nc(CN4CCCC4=O)co3)c1C2 [Compound 364]	< 100
COc1ccc2c(c1)-c1[nH]ncc1Cc1c(-c3cc(C(F)(F)F)nn3C)ncn1-2 [Compound 79]	100 to 1000
COC(C)(C)c1noc(-c2ncn3c2Cc2cn(CC4CCOC4)nc2-c2cc(Cl)ccc2-3)n1 (stereo not shown) [Compound 367]	< 100
Clc1ccc2c(c1)-c1nn(C3CCOC3)cc1Cc1c(-c3cnn(CC4CCOCC4)c3)ncn1-2 (stereo not shown) [Compound 321]	< 100
Clc1ccc2c(c1)-c1nn(CC3CCCO3)cc1Cc1c(-c3cnn(Cc4ccccn4)c3)ncn1-2 (stereo not shown) [Compound 320]	< 100
COc1ccc2c(c1)-c1nn(C)cc1Cc1c(-c3nc(CN(C)C(C)=O)co3)ncn1-2 [Compound 378]	100 to 1000
COc1ccc2c(c1)-c1c(cnn1C)Cc1c(-c3noc(C(C)(C)OC)n3)ncn1-2 [Compound 186]	100 to 1000
CC#Cc1ncn2c1Cc1cn[nH]c1-c1cc(Cl)ccc1-2 [Compound 65]	< 100
COc1ccc(Cn2ncc3c2-c2cc(OC)ccc2-n2cnc(C#Cc4ccnn4C)c2C3)cc1 [Compound 37]	100 to 1000
CC(C)c1noc(-c2ncn3c2Cc2cnn(Cc4ccccc4)c2-c2cc(Cl)ccc2-3)n1 [Compound 2]	100 to 1000
CCn1cc2c(n1)-c1cc(Cl)ccc1-n1cnc(-c3noc(CN4CCCC4)n3)c1C2 [Compound 350]	< 100
COc1ccc2c(c1)-c1nn(CCOC(C)(C)C)cc1Cc1c(-c3noc(C(C)(C)OC)n3)ncn1-2 [Compound 333]	< 100
COCCn1cc2c(n1)-c1cc(OC)ccc1-n1cnc(-c3noc(C(C)(C)OC)n3)c1C2 [Compound 311]	< 100
COCc1noc(-c2ncn3c2Cc2cn(C)nc2-c2cc(Cl)ccc2-3)n1 [Compound 235]	< 100

SMILES	Ki [nM]
Cn1cc2c(n1)-c1cc(Cl)ccc1-n1cnc(-c3ncco3)c1C2 [Compound 166]	< 100
CCn1cc2c(n1)-c1cc(Cl)ccc1-n1cnc(-c3noc(C(C)(C)OC)n3)c1C2 [Compound 196]	< 100
COc1ccc2c(c1)-c1nn(Cc3cccc(F)c3)cc1Cc1c(-c3nc(C)no3)ncn1-2 [Compound 22]	< 100
Cn1cc(-c2ncn3c2Cc2cn[nH]c2-c2cc(Cl)ccc2-3)cn1 [Compound 62]	100 to 1000
COc1ccc2c(c1)-c1nn(C)cc1Cc1c(-c3noc(CN4CCCC4=O)n3)ncn1-2 [Compound 368]	100 to 1000
CC(C)OCc1nc(-c2ncn3c2Cc2cn(CC4CCCO4)nc2-c2cc(Cl)ccc2-3)no1 (stereo not shown) [Compound 307]	< 100
COc1ccc2c(c1)-c1nn(C)cc1Cc1c(-c3noc(CC(C)(C)OC)n3)ncn1-2 [Compound 344]	100 to 1000
COc1ccc2c(c1)-c1[nH]ncc1Cc1c(C3=N[C@@H](c4ccccc4)CO3)ncn1-2 [Compound 15]	< 100
COc1ccc2c(c1)-c1nn(C)cc1Cc1c(-c3noc(Cn4cccn4)n3)ncn1-2 [Compound 361]	< 100
COc1ccc2c(c1)-c1nn(CCOC(F)(F)F)cc1Cc1c(-c3noc(C4(OC)CC4)n3)ncn1-2 [Compound 330]	< 100
COCc1noc(-c2ncn3c2Cc2cn(CC4CCOC4)nc2-c2cc(Cl)ccc2-3)n1 (stereo not shown) [Compound 351]	< 100
Clc1ccc2c(c1)-c1nn(CC3CCCO3)cc1Cc1c(-c3cnn(CC4CCOCC4)c3)ncn1-2 (stereo not shown) [Compound 319]	< 100
COc1ccc2c(c1)-c1[nH]ncc1Cc1c(-c3cnn(-c4ccccc4)c3)ncn1-2 [Compound 70]	100 to 1000
Clc1ccc2c(c1)-c1c(cnn1Cc1ccccc1)Cc1c(C3=N[C@H](c4ccccc4)CO3)ncn1-2 [Compound 5]	100 to 1000
COCCn1cc2c(n1)-c1cc(OC)ccc1-n1cnc(-c3noc(C4CCOCC4)n3)c1C2 [Compound 318]	< 100
COc1cccc(Cn2cc(-c3ncn4c3Cc3cn(C)nc3-c3cc(Cl)ccc3-4)cn2)n1 [Compound 336]	< 100
Cn1cc2c(n1)-c1cc(Cl)ccc1-n1cnc(-c3noc(Cn4ccnc4)n3)c1C2 [Compound 373]	< 100
Clc1ccc2c(c1)-c1[nH]ncc1Cc1c(-c3cnoc3)ncn1-2 [Compound 61]	100 to 1000
COCCOCc1coc(-c2ncn3c2Cc2cn(C)nc2-c2cc(Cl)ccc2-3)n1 [Compound 278]	< 100
COc1ccc2c(c1)-c1nn(C)cc1Cc1c(-c3noc(CC4COC4)n3)ncn1-2 [Compound 366]	< 100

Same assay, conditions: ranges of the column heads; [3H]Ro15-1788, Ltk cell membranes

Ki [nM]	SMILES
< 100	CCC(C)(OC)c1nc(-c2ncn3c2Cc2cn(C)nc2-c2cc(OC)ccc2-3)no1 (stereo not shown) [Compound 353]
> 1000	C[C@H]1COC(c2ncn3c2Cc2cnn(Cc4ccccc4)c2-c2cc(Cl)ccc2-3)=N1 [Compound 13]
100 to 1000	COc1ccc2c(c1)-c1[nH]ncc1Cc1c(C3=CCCC3)ncn1-2 [Compound 74]
> 1000	COc1ccc2c(c1)-c1[nH]ncc1Cc1c(-c3cn(C)nc3C(F)(F)F)ncn1-2 [Compound 81]
< 100	COCc1noc(-c2ncn3c2Cc2cn(CC4COC4)nc2-c2cc(OC)ccc2-3)n1 [Compound 298]
> 1000	CCOC(=O)c1cnc2n1CC(=O)N(Cc1ccc(OC)cc1OC)c1cc(Cl)ccc1-2 [Compound 25]
> 1000	COc1ccc2c(c1)-c1oncc1Cc1c(-c3nc(C(C)C)no3)ncn1-2 [Compound 41]
< 100	Cc1ccc(-c2noc(C)c2COc2ccc(C(=O)NC3CCOCC3)nn2)cn1 [Compound 238]
< 100	Cn1cc2c(n1)-c1cc(Cl)ccc1-n1cnc(-c3noc(CCN4CCCC4=O)n3)c1C2 [Compound 383]
< 100	COc1ccc2c(c1)-c1c(cnn1CC1CCOC1)Cc1c(-c3nc(C(C)C)no3)ncn1-2 (stereo not shown) [Compound 246]
> 1000	CC(C)C[C@@H]1COC(c2ncn3c2Cc2cnoc2-c2cc(Cl)ccc2-3)=N1 [Compound 68]
< 100	CC#Cc1ncn2c1Cc1cn[nH]c1-c1cc(OC)ccc1-2 [Compound 83]
> 1000	COc1ccc2c(c1)-c1[nH]ncc1Cc1c(-c3ccnn3C)ncn1-2 [Compound 78]
< 100	COc1ccc2c(c1)-c1nn(C)cc1Cc1c(-c3noc(C4CCOCC4)n3)ncn1-2 [Compound 324]
> 1000	COc1ccc2c(c1)-c1oncc1Cc1c(C3=N[C@@H](c4ccc(C(F)(F)F)cc4)CO3)ncn1-2 [Compound 50]
> 1000	COc1ccc2c(c1)-c1nn(C)cc1Cc1c(-c3nc(C4CCOC4)co3)ncn1-2 (stereo not shown) [Compound 262]
< 100	Clc1ccc2c(c1)-c1nn(CC3CCOC3)cc1Cc1c(-c3cnn(Cc4ccccc4)c3)ncn1-2 (stereo not shown) [Compound 229]
